Data published in PubChem BioAssay AID1963829 (Molecular Pharmacology Branch, DTP, NCI, 2024).
“And” between values parts separate entries of the source, which are not always exact repeats. Equal values may be shown once.

test system: 935938-334-R-J1-PDC complex spheroid viability; assay: Anticancer human tumor 935938-334-R-J1-PDC patient-derived small intestine adenocarcinoma cell line growth inhibition [POLQ]; conditions: compound 0.0316 µM; stronger effect = lower value
Protocol: Multicellular complex tumor spheroid response to Polymerase (POL) inhibitors (novobiocin, ART-558, RP6685) in combination with a variety of drugs and investigational agents in selected tumor cell lines
The POL inhibitors (novobiocin, ART-558, and RP6685) were evaluated both individually and in combination with standard of care and investigational anticancer small molecules within a complex spheroid model of solid tumors. . Complex spheroids include a stromal component modeled by human endothelial cells (HUVEC) and fibroblasts modeled by human mesenchymal stem cells (MSCs). The concentration ranges selected for each drug and investigational agent were based upon clinically achievable concentrations if the clinical Cmax of the agent was known.
Compounds. The drugs and investigational agents: novobiocin (NSC847541), ART-558 (NSC835418), RP-6685 (NSC848927), peposertib (NSC802822), ceralasertib (NSC780249), elimusertib (NSC800525), camonsertib (NSC841442), AZD-1390 (NSC803789), olaparib (NSC753686), talazoparib (NSC767125), rucaparib (NSC756644), sotorasib (NSC818433), MRTX-1133 (NSC836407), SN-38 (NSC673596), topotecan (NSC609699), epotoside (NSC141540), doxorubicin (NSC123127), gemcitabine (NSC613327), 5-fluorouracil (NSC19893), paclitaxel (NSC125973), vemurafenib (NSC761431), MSA-2 (NSC828583), SN-011 (NSC837082), adavosertib (NSC754352), prexasertib (NSC758257), carboplatin (NSC241240) and oxaliplatin (NSC266046), were obtained from the National Cancer Institute (NCI) Developmental Therapeutics Program Chemical Repository (21). The FDA-approved anticancer drug set is available from the Developmental Therapeutics Program at https://dtp.cancer.gov/organization/dscb/obtaining/. […] The stock solutions were prepared in dimethyl sulfoxide (DMSO, Sigma-Aldrich, St. Louis, MO, cat. D2650), except for the platinum compounds which were prepared in saline (Quality Biological, Gaithersburg, MD, cat. 114-055-101), at 800-fold the tested concentration and stored at -70 degrees C prior to their use. All drugs and investigational agents were tested over a range starting from a high concentration at or near the clinical Cmax and decreasing in half-log increments. If the clinical Cmax for an agent had not been determined, the highest concentration tested was 10 microM, except for SN-38, which was tested at a high concentration of 1 microM.
Cell Culture. All cells were maintained in an incubator at 37 degrees C and 5% CO2 with 95% humidity. The PDC lines were cultured according to standard operating procedures established by the NCI PDMR (https://pdmr.cancer.gov). Table 3 of the manuscript, lists the cell lines along with the number of the three cell types plated to form the mct-spheroids and media for tumor cell growth. After thawing, all PDC lines, except 997537-175-T-J1-PDC and 415267-285-R-J2-PDC, were cultured in Matrigel-coated flasks prepared with a working solution of 1X Ham's F-12 nutrient mix, without supplementation (Thermo Fisher Scientific, cat. 11765054), 100 U/mL penicillin-streptomycin (Thermo Fisher Scientific, cat. 15140122), and 2.5% Matrigel (Corning Inc., Corning, NY, cat. 354248) for the first three passages. The two PDC lines 997537-175-T-J1-PDC and 415267-285-R-J2-PDC were cultured on uncoated flasks. The 857933-349-R-J2-PDC line was cultured in 6C/Colon 1B media containing advanced DMEM/F-12 (Thermo Fisher Scientific, cat. 12634028), 10 mM HEPES (Thermo Fisher Scientific, cat. 15630080), 1X GlutaMAX supplement (Thermo Fisher Scientific, cat. 35050061), 0.1 mg/mL primocin (InvivoGen, San Diego, CA, cat. ant-pm-2), 10% defined fetal bovine serum, heat inactivated (HyClone Laboratories Inc., Logan, UT, cat. SH30070.03HI), 50% L-WRN conditioned media (ATCC, cat. CRL-3276), 1.25 mM N-Acetyl-L-cysteine (Sigma-Aldrich, cat. A9165), 10 mM nicotinamide (Sigma-Aldrich, cat. N0636), 1X B-27 supplement (Thermo Fisher Scientific, cat. 17504044), 1X N-2 supplement (Thermo Fisher Scientific, cat. […]
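Also: spheroids exposed to drugs for seven days before viability read.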
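For viability, T/C in this document: 100% = DMSO vehicle control wells.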

| SMILES | viability, T/C |
| --- | --- |
| COc1cccc2c1C(=O)c1c(O)c3c(c(O)c1C2=O)CC(O)(C(=O)CO)CC3OC1CC(N)C(O)C(C)O1 (centres undefined) | 68.8% and 69.1% and 56.6% |
| O=c1[nH]cc(F)c(=O)[nH]1 | 103% and 81.1% and 79.2% |
| O=C(c1cc(Cc2n[nH]c(=O)c3ccccc23)ccc1F)N1CCN(C(=O)C2CC2)CC1 | 88.4% and 80.5% and 75% |
| C#Cc1c(F)ccc2cc(O)cc(-c3ncc4c(N5CC6CCC(C5)N6)nc(OCC56CCCN5CC(F)C6)nc4c3F)c12 (centres undefined) | 94.5% and 100% and 95% |

same assay, conditions: compound 0.1 µM; stronger effect = lower value

| SMILES | viability, T/C |
| --- | --- |
| COc1cccc2c1C(=O)c1c(O)c3c(c(O)c1C2=O)CC(O)(C(=O)CO)CC3OC1CC(N)C(O)C(C)O1 (centres undefined) | 39.8% and 38.5% and 102% |
| O=c1[nH]cc(F)c(=O)[nH]1 | 114% and 90.2% and 81.6% |
| O=C(c1cc(Cc2n[nH]c(=O)c3ccccc23)ccc1F)N1CCN(C(=O)C2CC2)CC1 | 103% and 70.2% and 77.2% |
| C#Cc1c(F)ccc2cc(O)cc(-c3ncc4c(N5CC6CCC(C5)N6)nc(OCC56CCCN5CC(F)C6)nc4c3F)c12 (centres undefined) | 109% and 87.3% and 101% |

same assay, conditions: compound 0.316 µM; stronger effect = lower value

| SMILES | viability, T/C |
| --- | --- |
| COc1cccc2c1C(=O)c1c(O)c3c(c(O)c1C2=O)CC(O)(C(=O)CO)CC3OC1CC(N)C(O)C(C)O1 (centres undefined) | 25.9% and 33.7% and 25.3% |
| O=c1[nH]cc(F)c(=O)[nH]1 | 113% and 80.6% and 77.4% |
| O=C(c1cc(Cc2n[nH]c(=O)c3ccccc23)ccc1F)N1CCN(C(=O)C2CC2)CC1 | 100% and 67.5% and 112% |
| C#Cc1c(F)ccc2cc(O)cc(-c3ncc4c(N5CC6CCC(C5)N6)nc(OCC56CCCN5CC(F)C6)nc4c3F)c12 (centres undefined) | 78.4% and 86.1% and 85.4% |

same assay, conditions: compound 1 µM; stronger effect = lower value

| SMILES | viability, T/C |
| --- | --- |
| COc1cccc2c1C(=O)c1c(O)c3c(c(O)c1C2=O)CC(O)(C(=O)CO)CC3OC1CC(N)C(O)C(C)O1 (centres undefined) | 23.2% and 22.7% and 24.1% |
| O=c1[nH]cc(F)c(=O)[nH]1 | 90.5% and 72.5% and 74.6% |
| O=C(c1cc(Cc2n[nH]c(=O)c3ccccc23)ccc1F)N1CCN(C(=O)C2CC2)CC1 | 94.9% and 67.4% and 68.7% |
| C#Cc1c(F)ccc2cc(O)cc(-c3ncc4c(N5CC6CCC(C5)N6)nc(OCC56CCCN5CC(F)C6)nc4c3F)c12 (centres undefined) | 59.5% and 69% and 70.2% |

same assay, conditions: compound 3.16 µM; stronger effect = lower value

| SMILES | viability, T/C |
| --- | --- |
| COc1cccc2c1C(=O)c1c(O)c3c(c(O)c1C2=O)CC(O)(C(=O)CO)CC3OC1CC(N)C(O)C(C)O1 (centres undefined) | 7.61% and 6.31% and 3.97% |
| O=c1[nH]cc(F)c(=O)[nH]1 | 75.5% and 63.4% and 54.9% |
| O=C(c1cc(Cc2n[nH]c(=O)c3ccccc23)ccc1F)N1CCN(C(=O)C2CC2)CC1 | 72% and 64.6% and 73.7% |
| C#Cc1c(F)ccc2cc(O)cc(-c3ncc4c(N5CC6CCC(C5)N6)nc(OCC56CCCN5CC(F)C6)nc4c3F)c12 (centres undefined) | 64.2% and 46.4% and 44% |

same assay, conditions: compound 10 µM; stronger effect = lower value

| SMILES | viability, T/C |
| --- | --- |
| COc1cccc2c1C(=O)c1c(O)c3c(c(O)c1C2=O)CC(O)(C(=O)CO)CC3OC1CC(N)C(O)C(C)O1 (centres undefined) | 6.95% and 3.94% and 4.69% |
| O=c1[nH]cc(F)c(=O)[nH]1 | 59% and 54.3% and 47.8% |
| O=C(c1cc(Cc2n[nH]c(=O)c3ccccc23)ccc1F)N1CCN(C(=O)C2CC2)CC1 | 54.9% and 55.4% and 55.1% |
| C#Cc1c(F)ccc2cc(O)cc(-c3ncc4c(N5CC6CCC(C5)N6)nc(OCC56CCCN5CC(F)C6)nc4c3F)c12 (centres undefined) | 28.9% and 34.7% and 36.1% |

same assay, conditions: compound alone; run of 11/27/2023

| IC50 [nM] | SMILES |
| --- | --- |
| > 10000 | Cc1cccc(N(C)C(=O)C2C(O)CCN2c2nc(C)cc(C(F)(F)F)c2C#N)c1 (centres undefined) |

same assay, conditions: compound alone; run of 12/05/2023

| IC50 [nM] | SMILES |
| --- | --- |
| > 10000 | Cc1cccc(N(C)C(=O)C2C(O)CCN2c2nc(C)cc(C(F)(F)F)c2C#N)c1 (centres undefined) |

same assay, conditions: curve of compound

| SMILES | IC50 |
| --- | --- |
| COc1cccc2c1C(=O)c1c(O)c3c(c(O)c1C2=O)CC(O)(C(=O)CO)CC3OC1CC(N)C(O)C(C)O1 (centres undefined) | 70.7 nM and 79.2 nM and 187 nM |
| O=c1[nH]cc(F)c(=O)[nH]1 | > 10000 nM and 7010 nM |
| O=C(c1cc(Cc2n[nH]c(=O)c3ccccc23)ccc1F)N1CCN(C(=O)C2CC2)CC1 | > 10000 nM |
| C#Cc1c(F)ccc2cc(O)cc(-c3ncc4c(N5CC6CCC(C5)N6)nc(OCC56CCCN5CC(F)C6)nc4c3F)c12 (centres undefined) | 3790 nM and 2850 nM and 2510 nM |

same assay, conditions: curve of first compound; second compound 0.0316 µM

| SMILES | IC50 [nM] |
| --- | --- |
| CC1COCCN1c1cc(-c2ccnn2C)c2ccnc(-c3ccn[nH]3)c2n1 (centres undefined) + Cc1cccc(N(C)C(=O)C2C(O)CCN2c2nc(C)cc(C(F)(F)F)c2C#N)c1 | 108 |
| COc1cccc2c1C(=O)c1c(O)c3c(c(O)c1C2=O)CC(O)(C(=O)CO)CC3OC1CC(N)C(O)C(C)O1 (centres undefined) + Nc1ccc(C#CCN(C(=O)Cc2ncc(C(F)(F)F)cc2C(F)(F)F)c2ccc(F)cc2)nn1 | 70.9 |
| O=c1[nH]cc(F)c(=O)[nH]1 + Nc1ccc(C#CCN(C(=O)Cc2ncc(C(F)(F)F)cc2C(F)(F)F)c2ccc(F)cc2)nn1 | > 10000 |

same assay, conditions: curve of first compound; second compound 0.1 µM

| SMILES | IC50 [nM] |
| --- | --- |
| CC1COCCN1c1cc(-c2ccnn2C)c2ccnc(-c3ccn[nH]3)c2n1 (centres undefined) + Cc1cccc(N(C)C(=O)C2C(O)CCN2c2nc(C)cc(C(F)(F)F)c2C#N)c1 | 97.8 |
| COc1cccc2c1C(=O)c1c(O)c3c(c(O)c1C2=O)CC(O)(C(=O)CO)CC3OC1CC(N)C(O)C(C)O1 (centres undefined) + Nc1ccc(C#CCN(C(=O)Cc2ncc(C(F)(F)F)cc2C(F)(F)F)c2ccc(F)cc2)nn1 | 86.4 |
| O=c1[nH]cc(F)c(=O)[nH]1 + Nc1ccc(C#CCN(C(=O)Cc2ncc(C(F)(F)F)cc2C(F)(F)F)c2ccc(F)cc2)nn1 | > 10000 |

same assay, conditions: curve of first compound; second compound 0.316 µM

| SMILES | IC50 [nM] |
| --- | --- |
| CC1COCCN1c1cc(-c2ccnn2C)c2ccnc(-c3ccn[nH]3)c2n1 (centres undefined) + Cc1cccc(N(C)C(=O)C2C(O)CCN2c2nc(C)cc(C(F)(F)F)c2C#N)c1 | 107 |
| COc1cccc2c1C(=O)c1c(O)c3c(c(O)c1C2=O)CC(O)(C(=O)CO)CC3OC1CC(N)C(O)C(C)O1 (centres undefined) + Nc1ccc(C#CCN(C(=O)Cc2ncc(C(F)(F)F)cc2C(F)(F)F)c2ccc(F)cc2)nn1 | < 31.6 |
| O=c1[nH]cc(F)c(=O)[nH]1 + Nc1ccc(C#CCN(C(=O)Cc2ncc(C(F)(F)F)cc2C(F)(F)F)c2ccc(F)cc2)nn1 | > 10000 |
